US12246068B2, “Enzymatically activatable peptide-redox modulator conjugates and use thereof” (BRANDEIS UNIVERSITY, priority 2017, dated 2025)
Where a SMILES comes first, the peptide text is derived from it. [ ]: non-standard residue; d: D form. The star is where a group is joined. X1 = O=C(CCC[P+](c1ccccc1)(c1ccccc1)c1ccccc1)*; d(pY) = N[C@H](Cc1ccc(OP(=O)(O)O)cc1)C(=O)O; pY = N[C@@H](Cc1ccc(OP(=O)(O)O)cc1)C(=O)O; NBD = O=[N+]([O-])c1ccc(*)c2nonc12; Cbz = O=C(OCc1ccccc1)*; βAla = NCCC(=O)O; CH2F = FC*

Assays:
ALP = ALP catalyzed dephosphorylation of the precursors; format: biochemical; conditions: alkaline phosphatase (ALP), isolated enzyme; substrate 0.1 wt %, ALP 0.1 U/mL, 37° C.; read-out: t1/2 of ALP catalyzed dephosphorylation (converted)
Protocol: After obtaining all the precursors in Example 1, their behaviors were evaluated for EISA in vitro by using TEM and static light scattering (SLS) to examine the nanostructures formed before and after the addition of ALP into the solutions of the precursors. […] As a contrast, D-1P (50 μM) forms slightly more regular fibrous structures with diameter of 8±2 nm, which then interact with each other to form dense 2D/3D networks. […] After 24 h, the percentages of enzymatic dephosphorylation of D-1P and L-1P are about 90% and 80%, respectively. […] After being formed by dephosphorylation, L-1 and D-1 form different nanostructures. […] Similar to L-1, D-1 forms aggregated hollow colloids with a larger mean diameter (106±2 nm) and slightly thicker layers (thickness of 6±2 nm). L-2P or D-2P (50 μM) forms amorphous aggregates after dissolving in PBS buffer (pH=7.4) (FIG. 5). While the addition of ALP converts L-2P to L-2 to form uniform nanofibers with diameter of 9±2 nm, the enzymatic conversion of D-2P to D-2 results in nanoscale aggregates with diameter of 16±2 nm. […] As a charged, steric-hindered motif being connected to the peptide backbone via a relatively flexible linker, TPP disrupts intermolecular packing to disfavor the formation of long nanofibers, but it promotes interparticle interaction to favor polymorphic aggregates before and after enzymatic dephosphorylation. […]

selected Saos2 cell line = assay: MTT assay on selected Saos2 cells after five weeks stimulation; format: cell-based, human
Protocol: (§1) For the MTT Assay, all cells were seeded in a 96-well plate with the density of 1*10^4 cells per-well (total medium volume of 100 μL). 24 hours post seeding, the solutions with a serial of concentrations (5 concentrations) of different precursors were added to each well. Cells without the treatment of the precursors were used as the control. At designated time (24/48/72 hours), 10 μL MTT solution (5 mg/mL) was added to each well and incubated at 37° C. for another 4 h, and then 100 μL of SDS-HCl solution was added to stop the reduction reaction and dissolve the purple formazan. The absorbance of each well at 595 nm was measured by a multimode microplate reader. The cytotoxicity assay was performed three times and the average value of the three measurements was taken.
Based on the above mechanism of cell death showing that L-1P (or D-1P) activates multiple death signaling pathways, it is believed that cancer cells unlikely would be able to evolve resistance toward this multiple targeting strategy. […] Such a plasticity should minimize the path to drug resistance. […]

HS5 cells = assay: MTT cell viability assay, HS5; format: cell-based, human; conditions: 100 μM
Protocol: (§2) Saos2, HeLa, HepG2, T98G, MCF-7 and HS-5 cells were purchased from American-type Culture Collection (ATCC, USA). Saos2 cells were cultured in Macyo's 5A medium supplemented with 15% v/v fetal bovine serum, 100 U/mL penicillin and 100 μg/mL streptomycin. HeLa, HepG2, T98G, MCF-7 cells were cultured in MEM Medium supplemented with 10% v/v fetal bovine serum, HS-5 cells were cultured in Dulbecco's Modified Eagle's medium (DMEM) supplemented with 10% v fetal bovine serum (FBS), 100 U/mL penicillin and 100 μg/mL streptomycin. All cells were cultured at 37° C. in a humidified atmosphere of 5% CO2.
as §1, with “taken. […]” for “taken.”

Saos2 cells = assay: MTT cell viability assay, Saos2; format: cell-based, human; conditions: for IC50 against Saos2 cells / IC50: unstimulated Saos2; for IC50: read-out: IC50 against Saos2 cells; for cytotoxicity to Saos2 cells: formed from the precursor by exogenous ALP, concentrations up to 200 μM; for cytotoxicity against Saos2 cell: even at 500 μM
Protocol: as §2, §1
To investigate the cellular response to all the precursors, an MTT (3-(4,5-dimethylthiazol-2-yl)-2,5-diphenyl tetrazolium bromide) assay (Gerlier et al., J. Immunol. Methods 94:57 (1986), which is hereby incorporated by reference in its entirety) was first used to examine the viability of human osteosarcoma cells (Saos2, which expresses high level ALP (Farley et al., Metabolism 40:664 (1991), which is hereby incorporated by reference in its entirety)) cultured with the precursors. As a control, the viability of normal human bone marrow stromal cells (HS5) that express low level of ALP on cell surface was also examined (Zhou et al., Chem 1:246 (2016), which is hereby incorporated by reference in its entirety). […] In the presence of exogenous ALP, L-1P (or D-1P) turns into L-1 (or D-1), which is innocuous to Saos2 cells at the concentrations up to 200 μM. […] To investigate the retention of L-1 (or D-1) in the Saos2 cells, the cells were incubated with L-1P (D-1P, 50 μM) for different times. […] On the contrary, the concentration of D-1 decreases little after 6 h incubation. Moreover, the intracellular concentration of D-1 is 3.5 fold of that of L-1 at 6 h incubation, but the ratio increases to 10 fold at 24 h incubation (FIG. 8B).
Three kinds of established ALP inhibitors were used: L-phenylalanine (L-Phe) (Borgers, M. J., Histochem. Cytochem. 21:812 (1973), which is hereby incorporated by reference in its entirety), an efficient uncompetitive inhibitor of placental alkaline phosphatase (PLAP) levamisole, a well-known uncompetitive inhibitor of tissue-nonspecific alkaline phosphatase (TNAP) (Borgers, M. J., Histochem. Cytochem. 21:812 (1973), which is hereby incorporated by reference in its entirety) and CinnGEL 2Me (Zhu et al., Cancer Res. 67:10129 (2007), which is hereby incorporated by reference in its entirety), an inhibitor of protein tyrosine phosphatase (PTP1B) that localizes at the cytoplasmic face of the endoplasmic reticulum. […] Moreover, the PTP1B inhibitor (i.e., CinnGEL 2Me) is unable to rescue the cells, supporting the mechanism in FIG. 1 that EISA on the cell surface is the key processes for converting L-1P and D-1P to L-1 and D-1, respectively. To further confirm the role of ALPs on cell surface, the precursors were incubated together with ALP, which serves as an exogenous enzyme. The addition of ALP almost eliminates the cytotoxicity of the precursors. […]

[1] = tested on: T1, L-2P (NBD-βA-FFpYK, L enantiomer, with acetyl on the ε-amine of lysine)
T1 sequence: XFFXK

[2] = tested on: T2, D-2P (NBD-βA-FFpYK, D enantiomer, with acetyl on the ε-amine of lysine)
T2 sequence: XFFXK

[3] = tested on: T3, D-1P (NBD-βA-FFpYK, D enantiomer, with TPP on the ε-amino group of lysine)
T3 sequence: XFFXK

[4] = tested on: T4, L-1P (NBD-βA-FFpYK, L enantiomer, with TPP on the ε-amino group of lysine)
T4 sequence: XFFXK

[5] = 100 μM, 48 h, with levamisole (1 mM)
[6] = 100 μM, 48 h, without inhibitor
[7] = 200 μM, 48 h, with levamisole (1 mM)
[8] = 200 μM, 48 h, without inhibitor
[9] = co-incubated with the targeting motif TPP (3), 48 h

## O=C(CCC[P+](c1ccccc1)(c1ccccc1)c1ccccc1)NCCCC[C@@H](NC(=O)[C@@H](Cc1ccc(OP(=O)(O)O)cc1)NC(=O)[C@@H](Cc1ccccc1)NC(=O)[C@@H](Cc1ccccc1)NC(=O)CCNc1ccc([N+](=O)[O-])c2nonc12)C(=O)O [D-1P] ({NBD-βAla}-[dF][dF][d(pY)][dK](X1)-OH)
ALP
  half-life at 0.1 wt %: 33 min
Selected Saos2 cell line; cells selected by five weeks stimulation of D-1P (10 to 50 μM), read-out: IC50 against Saos2 cells after five weeks stimulation
  IC50: 35.2 µM
HS5 cells
  cytotoxicity against HS5 cells: almost innocuous
Saos2 cells; [5]
  cell viability of Saos2 cells: 66.0%
Saos2 cells; [6]
  cell viability of Saos2 cells: 11.5%
Saos2 cells; [7]
  cell viability of Saos2 cells: 53.3%
Saos2 cells; [8]
  cell viability of Saos2 cells: 1.8%
Saos2 cells; 48 h
  IC50 against Saos2 cells: 57.4 ± 2.5 µg/mL
  IC50: 46 ± 2 µM

## O=C(CCC[P+](c1ccccc1)(c1ccccc1)c1ccccc1)NCCCC[C@@H](NC(=O)[C@@H](Cc1ccc(O)cc1)NC(=O)[C@@H](Cc1ccccc1)NC(=O)[C@@H](Cc1ccccc1)NC(=O)CCNc1ccc([N+](=O)[O-])c2nonc12)C(=O)O [D-1] ({NBD-βAla}-[dF][dF][dY][dK](X1)-OH)
Saos2 cells
  cytotoxicity to Saos2 cells: innocuous

## CC(=O)NCCCC[C@@H](NC(=O)[C@@H](Cc1ccc(OP(=O)(O)O)cc1)NC(=O)[C@@H](Cc1ccccc1)NC(=O)[C@@H](Cc1ccccc1)NC(=O)CCNc1ccc([N+](=O)[O-])c2nonc12)C(=O)O [D-2P] ({NBD-βAla}-[dF][dF][d(pY)][dK](Ac)-OH)
Saos2 cells; by itself, 48 h
  cytotoxicity against Saos2 cell: hardly exhibits cytotoxicity
Saos2 cells; [9]
  cytotoxicity against Saos2 cell: hardly exhibits cytotoxicity

## O=C(CCC[P+](c1ccccc1)(c1ccccc1)c1ccccc1)NCCCC[C@H](NC(=O)[C@H](Cc1ccc(OP(=O)(O)O)cc1)NC(=O)[C@H](Cc1ccccc1)NC(=O)[C@H](Cc1ccccc1)NC(=O)CCNc1ccc([N+](=O)[O-])c2nonc12)C(=O)O [L-1P] ({NBD-βAla}-FF[pY]K(X1)-OH)
ALP
  half-life at 0.1 wt %: 68.4 min
Selected Saos2 cell line; 50 μM, 48 h, after five weeks stimulation
  cell viability of the selected cells: 20.5%
HS5 cells
  cytotoxicity against HS5 cells: almost innocuous
Saos2 cells; 50 μM, 48 h
  cell viability of unstimulated Saos2: 71.7%
Saos2 cells; [5]
  cell viability of Saos2 cells: 65.3%
Saos2 cells; [6]
  cell viability of Saos2 cells: 21.6%
Saos2 cells; [7]
  cell viability of Saos2 cells: 50.5%
Saos2 cells; [8]
  cell viability of Saos2 cells: 2.1%
Saos2 cells; 48 h
  IC50 against Saos2 cells: 76.1 ± 2.5 µg/mL
  IC50: 61 ± 2 µM

## O=C(CCC[P+](c1ccccc1)(c1ccccc1)c1ccccc1)NCCCC[C@H](NC(=O)[C@H](Cc1ccc(O)cc1)NC(=O)[C@H](Cc1ccccc1)NC(=O)[C@H](Cc1ccccc1)NC(=O)CCNc1ccc([N+](=O)[O-])c2nonc12)C(=O)O [L-1] ({NBD-βAla}-FFYK(X1)-OH)
Saos2 cells
  cytotoxicity to Saos2 cells: innocuous

## CC(=O)NCCCC[C@H](NC(=O)[C@H](Cc1ccc(OP(=O)(O)O)cc1)NC(=O)[C@H](Cc1ccccc1)NC(=O)[C@H](Cc1ccccc1)NC(=O)CCNc1ccc([N+](=O)[O-])c2nonc12)C(=O)O [L-2P] ({NBD-βAla}-FF[pY]K(Ac)-OH)
Saos2 cells; by itself, 48 h
  cytotoxicity against Saos2 cell: hardly exhibits cytotoxicity
Saos2 cells; [9]
  cytotoxicity against Saos2 cell: hardly exhibits cytotoxicity

## COC(=O)C[C@H](NC(=O)[C@H](C)NC(=O)[C@@H](NC(=O)OCc1ccccc1)C(C)C)C(=O)CF [zVAD-fmk, reference compound] (Cbz-Val-Ala-Asp(OMe)-CH2F)
Saos2 cells; 45 μM, by itself
  toxicity on Saos2 cells: no toxicity

## alkaline phosphatase
[1]
  enzymatic conversion (dephosphorylation) seen by TEM: the addition of ALP converts L-2P to L-2 to form uniform nanofibers
[2]
  enzymatic conversion (dephosphorylation) seen by TEM: the enzymatic conversion of D-2P to D-2 results in nanoscale aggregates
[3]
  percentage of enzymatic dephosphorylation after 24 h: the percentages of enzymatic dephosphorylation of D-1P and L-1P are about 90% and 80%, respectively
  t1/2 of ALP catalyzed dephosphorylation (substrate 0.1 wt %, ALP 0.1 U/mL): The t1/2 was determined to be 0.55 h and 1.14 h for D-1P and L-1P, respectively
[4]
  percentage of enzymatic dephosphorylation after 24 h: the percentages of enzymatic dephosphorylation of D-1P and L-1P are about 90% and 80%, respectively
  t1/2 of ALP catalyzed dephosphorylation (substrate 0.1 wt %, ALP 0.1 U/mL): The t1/2 was determined to be 0.55 h and 1.14 h for D-1P and L-1P, respectively
